# In ChEMBL document CHEMBL3885881, “DrugMatrix”:
# Species on record: Rattus norvegicus
# Test: DrugMatrix - Regimen: Daily Repeat
# Format: toxicity, organism-based, Sprague-Dawley
# Set-up: regimen Daily Repeat, gender Male, age 6-8 weeks
# Details: in vivo, po, route oral GAVAGE, […]; for ABSOLUTE BASOPHIL / ABSOLUTE EOSINOPHIL / ABSOLUTE LYMPHOCYTE / ABSOLUTE SEGMENTED NEUTROPHIL / BASOPHIL / EOSINOPHIL / ERYTHROCYTE COUNT / HEMATOCRIT / HEMOGLOBIN / LEUKOCYTE COUNT / LYMPHOCYTE / MEAN CORPUSCULAR HEMOGLOBIN / MEAN CORPUSCULAR HEMOGLOBIN CONCENTRATION / MEAN CORPUSCULAR VOLUME / MONOCYTE / NEUTROPHIL / NUCLEATED RED BLOOD CELLS / PLATELET COUNT: tissue Blood; for ALANINE AMINOTRANSFERASE / ALBUMIN / ALKALINE PHOSPHATASE / ASPARTATE AMINOTRANSFERASE / BLOOD UREA NITROGEN / CARBON DIOXIDE / CHLORIDE / CHOLESTEROL / CREATINE PHOSPHOKINASE / CREATININE / GLUCOSE / LACTATE DEHYDROGENASE / LIPASE / PHOSPHORUS / POTASSIUM / SODIUM / TOTAL BILIRUBIN / TOTAL PROTEIN / URIC ACID: tissue Plasma
# [1] = 15 mg/kg, 120 h, dose level Low, time 5 day
# [2] = 1200 mg/kg, 72 h, dose level High, time 3 day
# [3] = 1200 mg/kg, 120 h, dose level High, time 5 day
compound,measurement,setting,value
CCC(C)(C)C(=O)O[C@H]1C[C@@H](C)C=C2C=C[C@H](C)[C@H](CC[C@@H]3C[C@@H](O)CC(=O)O3)[C@H]21 [SIMVASTATIN],ABSOLUTE BASOPHIL,[1],0 CELLS/uL
same,ABSOLUTE EOSINOPHIL,[1],0 CELLS/uL
same,ABSOLUTE LYMPHOCYTE,[1],6051 CELLS/uL
same,ABSOLUTE SEGMENTED NEUTROPHIL,[1],802.33 CELLS/uL
same,BASOPHIL,[1],0%
same,EOSINOPHIL,[1],0%
same,ERYTHROCYTE COUNT,[1],5.09 x10E6/uL
same,HEMATOCRIT,[1],32.87%
same,HEMOGLOBIN,[1],12.87 G/DL
same,LEUKOCYTE COUNT,[1],6.93 x10E3/uL
same,LYMPHOCYTE,[1],87.67%
same,MEAN CORPUSCULAR HEMOGLOBIN,[1],25.33 pg
same,MEAN CORPUSCULAR HEMOGLOBIN CONCENTRATION,[1],39.2 G/DL
same,MEAN CORPUSCULAR VOLUME,[1],64.63 fL
same,MONOCYTE,[1],1%
same,NEUTROPHIL,[1],11.33%
same,NUCLEATED RED BLOOD CELLS,[1],0 /100WBC
same,PLATELET COUNT,[1],1251.33 x10E3/uL
same,ALANINE AMINOTRANSFERASE,[1],57.67 u/L
same,ALBUMIN,[1],4 G/DL
same,ALKALINE PHOSPHATASE,[1],335.33 u/L
same,ASPARTATE AMINOTRANSFERASE,[1],77.67 u/L
same,BLOOD UREA NITROGEN,[1],14.67 mg/dL
same,CARBON DIOXIDE,[1],30.67 mmol/L
same,CHLORIDE,[1],99 MEQ/L
same,CHOLESTEROL,[1],66.33 mg/dL
same,CREATINE PHOSPHOKINASE,[1],168.67 u/L
same,CREATININE,[1],0.17 mg/dL
same,GLUCOSE,[1],178.67 mg/dL
same,LACTATE DEHYDROGENASE,[1],64 u/L
same,LIPASE,[1],9.33 u/L
same,PHOSPHORUS,[1],11.6 mg/dL
same,POTASSIUM,[1],5.71 MEQ/L
same,SODIUM,[1],144.13 MEQ/L
same,TOTAL BILIRUBIN,[1],0.1 mg/dL
same,TOTAL PROTEIN,[1],5.6 G/DL
same,URIC ACID,[1],0.67 mg/dL
same,ABSOLUTE BASOPHIL,[2],0 CELLS/uL
same,ABSOLUTE EOSINOPHIL,[2],0 CELLS/uL
same,ABSOLUTE LYMPHOCYTE,[2],6224.67 CELLS/uL
same,ABSOLUTE SEGMENTED NEUTROPHIL,[2],3273.67 CELLS/uL
same,BASOPHIL,[2],0%
same,EOSINOPHIL,[2],0%
same,ERYTHROCYTE COUNT,[2],6.06 x10E6/uL
same,HEMATOCRIT,[2],37.77%
same,HEMOGLOBIN,[2],14.83 G/DL
same,LEUKOCYTE COUNT,[2],9.57 x10E3/uL
same,LYMPHOCYTE,[2],66%
same,MEAN CORPUSCULAR HEMOGLOBIN,[2],24.57 pg
same,MEAN CORPUSCULAR HEMOGLOBIN CONCENTRATION,[2],39.27 G/DL
same,MEAN CORPUSCULAR VOLUME,[2],62.5 fL
same,MONOCYTE,[2],0.67%
same,NEUTROPHIL,[2],33.33%
same,NUCLEATED RED BLOOD CELLS,[2],0 /100WBC
same,PLATELET COUNT,[2],1143.67 x10E3/uL
same,ALANINE AMINOTRANSFERASE,[2],323.67 u/L
same,ALBUMIN,[2],4.43 G/DL
same,ALKALINE PHOSPHATASE,[2],403.67 u/L
same,ASPARTATE AMINOTRANSFERASE,[2],291.33 u/L
same,BLOOD UREA NITROGEN,[2],12 mg/dL
same,CARBON DIOXIDE,[2],33 mmol/L
same,CHLORIDE,[2],97.67 MEQ/L
same,CHOLESTEROL,[2],46.33 mg/dL
same,CREATINE PHOSPHOKINASE,[2],1429 u/L
same,CREATININE,[2],0.1 mg/dL
same,GLUCOSE,[2],174.33 mg/dL
same,LACTATE DEHYDROGENASE,[2],212.33 u/L
same,LIPASE,[2],26 u/L
same,PHOSPHORUS,[2],7.2 mg/dL
same,POTASSIUM,[2],5.3 MEQ/L
same,SODIUM,[2],144.93 MEQ/L
same,TOTAL BILIRUBIN,[2],0.17 mg/dL
same,TOTAL PROTEIN,[2],5.67 G/DL
same,URIC ACID,[2],0.5 mg/dL
same,ABSOLUTE BASOPHIL,[3],0 CELLS/uL
same,ABSOLUTE EOSINOPHIL,[3],0 CELLS/uL
same,ABSOLUTE LYMPHOCYTE,[3],2769 CELLS/uL
same,ABSOLUTE SEGMENTED NEUTROPHIL,[3],4331 CELLS/uL
same,BASOPHIL,[3],0%
same,EOSINOPHIL,[3],0%
same,ERYTHROCYTE COUNT,[3],6.93 x10E6/uL
same,HEMATOCRIT,[3],43.8%
same,HEMOGLOBIN,[3],17.4 G/DL
same,LEUKOCYTE COUNT,[3],7.1 x10E3/uL
same,LYMPHOCYTE,[3],39%
same,MEAN CORPUSCULAR HEMOGLOBIN,[3],25.1 pg
same,MEAN CORPUSCULAR HEMOGLOBIN CONCENTRATION,[3],39.7 G/DL
same,MEAN CORPUSCULAR VOLUME,[3],63.2 fL
same,MONOCYTE,[3],0%
same,NEUTROPHIL,[3],61%
same,NUCLEATED RED BLOOD CELLS,[3],0 /100WBC
same,PLATELET COUNT,[3],1317 x10E3/uL
same,ALANINE AMINOTRANSFERASE,[3],285 u/L
same,ALBUMIN,[3],4.7 G/DL
same,ALKALINE PHOSPHATASE,[3],273 u/L
same,ASPARTATE AMINOTRANSFERASE,[3],367 u/L
same,BLOOD UREA NITROGEN,[3],37 mg/dL
same,CARBON DIOXIDE,[3],35 mmol/L
same,CHLORIDE,[3],82 MEQ/L
same,CHOLESTEROL,[3],103 mg/dL
same,CREATINE PHOSPHOKINASE,[3],1419 u/L
same,CREATININE,[3],0.1 mg/dL
same,GLUCOSE,[3],205 mg/dL
same,LACTATE DEHYDROGENASE,[3],510 u/L
same,LIPASE,[3],55 u/L
same,PHOSPHORUS,[3],9 mg/dL
same,POTASSIUM,[3],4.84 MEQ/L
same,SODIUM,[3],136.7 MEQ/L
same,TOTAL BILIRUBIN,[3],0.2 mg/dL
same,TOTAL PROTEIN,[3],6.1 G/DL
same,URIC ACID,[3],0.6 mg/dL
